The results in this text go back to patent publication EP0083600B1, “Use of alkaloid derivatives for the manufacture of a medicament for the strengthening of the immune system and for the treatment of viral, bacterial and fungal infections” (Nowicky, Wassyl, priority 1981, dated 1983).

The series can be described thus: Biological test of toxicity (lethal dose). To be noted: biologischer Test. The series is classed as in vivo. Here is the method: Weiterhin ließ sich nachweisen, daß in dem Präparat Ukrain (hier erfolgte die Umsetzung der Alkaloide von Chelidonium majus L. mit Thiophosphorsäuretriaziridid, gen. Thio-TEPA) keine freien Äthylengruppen des Thio-TEPA vorliegen. Dieser Nachweis wurde erbracht: • 1. durch eine chemische Analyse und • 2. dadurch, daß beim biologischen Test die Dosis letalis für Thio-TEPA bei 1 mg/kg Körpergewicht liegt, für das Präparat jedoch eine Dosis von 250 mg/kg Körpergewicht nicht toxisch ist.

Molecules are shown by their SMILES.

With `S=P(N1CC1)(N1CC1)N1CC1` [Thio-TEPA, Thiophosphorsäuretriaziridid], the Dosis letalis is 1 mg/kg Körpergewicht.
